Experimental data reported in patent publication US8575197B2, “Pyrolinone derivative and pharmaceutical composition comprising the same” (Shionogi & Co., Ltd., priority 2008, dated 2013).

Molecular target: human P2X3 receptor (Homo sapiens (Human), UniProt P56373)
Assay: P2X3 receptor inhibition, ATP-evoked Fluo-3 calcium fluorescence (FDSS 3000)
Format: cell-based
Settings: C6BU-1 cell transfected with human P2X3 receptor gene; ATP-evoked Fluo-3 fluorescence
Summary of the method: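 C6BU-1 cells stably transfected with human P2X3, loaded with 4 μM Fluo-3-AM for 1 h at 37 °C in HEPES buffer pH 7.5 with probenecid. Compound added 5 min before 40 nM ATP solution; fluorescence followed 3 min. IC50 from ratio of peak post-ATP to baseline fluorescence.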

Chain of human P2X3 receptor (P56373 whole entry): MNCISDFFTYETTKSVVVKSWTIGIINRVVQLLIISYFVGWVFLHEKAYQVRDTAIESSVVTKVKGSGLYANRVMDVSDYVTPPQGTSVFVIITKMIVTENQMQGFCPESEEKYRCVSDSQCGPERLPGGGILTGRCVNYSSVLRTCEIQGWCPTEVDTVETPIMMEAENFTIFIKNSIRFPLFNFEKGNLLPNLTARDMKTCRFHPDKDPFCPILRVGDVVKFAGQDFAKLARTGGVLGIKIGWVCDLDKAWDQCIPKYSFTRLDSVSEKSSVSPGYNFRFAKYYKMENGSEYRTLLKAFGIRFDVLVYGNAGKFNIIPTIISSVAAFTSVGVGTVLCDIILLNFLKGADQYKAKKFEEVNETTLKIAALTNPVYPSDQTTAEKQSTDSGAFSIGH

Compound | IC50
Cc1nc(-c2ccc(N3C(=O)C(O)=C(C(=O)C(C)C)C3c3cccnc3N3CCOCC3)cc2)no1 (stereo not drawn) [Compound I-524] | 696 nM
COc1ccccc1C1C(C(=O)CC(C)(C)C)=C(O)C(=O)N1c1ccc(-c2ccon2)cc1 (stereo not drawn) [Compound I-072] | 352 nM
CC(C)(C)C(=O)C1=C(O)C(=O)N(c2ccc(-c3ccon3)cc2)C1c1ccccc1OCC#N (stereo not drawn) [Compound I-103] | 355 nM
CC(C)(C)C(=O)C1=C(O)C(=O)N(c2ccc(-c3ccco3)cc2)C1c1cccnc1OCCO (stereo not drawn) [Compound I-173] | 137 nM
COc1ccccc1C1c2c(C(C)C)n[nH]c2C(=O)N1c1ccc(-c2ccsc2)c(N)c1 (stereo not drawn) [II-240] | 116 nM
COCCOc1ccccc1C1C(C(=O)CC(C)C)=C(O)C(=O)N1c1ccc(-c2noc(C)n2)cc1 (stereo not drawn) [Compound I-276] | 117 nM
CCc1nc2cc(N3C(=O)C(O)=C(C(=O)C(C)C)C3c3ccccc3OC(C)C)ccc2o1 (stereo not drawn) [Compound I-464] | 453 nM
COCCOCc1ncccc1C1c2c(C(C)(C)C)n[nH]c2C(=O)N1c1ccc(-c2ccsc2)cc1 (stereo not drawn) [II-277] | 274 nM
CNC(=O)COc1ccccc1C1C(C(=O)C(C)(C)C)=C(O)C(=O)N1c1ccc(-c2ccon2)cc1 (stereo not drawn) [Compound I-146] | 727 nM
CCOCOc1ccccc1C1C(C(=O)C(C)C)=C(O)C(=O)N1c1ccc(-c2ccsc2)cc1 (stereo not drawn) [Compound I-544] | 8 nM
COc1cc(N2C(=O)c3[nH]nc(C(C)C)c3C2c2ccccc2OC)ccc1-c1ccsc1 (stereo not drawn) [II-235] | 17 nM
COc1ccccc1C1c2c(C(C)(C)C)n[nH]c2C(=O)N1c1ccc(-c2ccoc2)cn1 (stereo not drawn) [II-247] | 33 nM
COc1ccc(F)cc1C1C(C(=O)C(C)C)=C(O)C(=O)N1c1ccc(-c2ccc(C)o2)cc1 (stereo not drawn) [Compound I-454] | 36 nM
Cc1cc(-c2ccc(N3C(=O)C(O)=C(C(=O)C(C)C)C3c3ccccc3N3CCCC3=O)cc2)cs1 (stereo not drawn) [Compound I-598] | 785 nM
COCCOc1ncccc1C1C(C(=O)CC(C)C)=C(O)C(=O)N1c1ccc(-c2ccc(C)o2)cc1 (stereo not drawn) [Compound I-360] | 21 nM
CC(C)(C)c1n[nH]c2c1C(c1ccccc1OC(F)(F)F)N(c1ccc(-c3ccon3)cc1)C2=O (stereo not drawn) [II-061] | 166 nM
CNC(=O)CCc1ccccc1C1C(C(=O)C(C)C)=C(O)C(=O)N1c1ccc(-c2ccc(C)o2)cc1 (stereo not drawn) [Compound I-535] | 49 nM
COc1ncccc1C1C(C(=O)CC(C)C)=C(O)C(=O)N1c1ccc(-c2ccc(C)s2)cc1 (stereo not drawn) [Compound I-336] | 351 nM
CC(C)c1n[nH]c2c1C(c1ccccc1CN(C)C)N(c1ccc(-c3ccsc3)cc1)C2=O (stereo not drawn) [II-084] | 18 nM
CC(C)(C)C(=O)C1=C(O)C(=O)N(c2ccc(-c3ccsc3)cc2)C1c1cccnc1OCCO (stereo not drawn) [Compound I-166] | 19 nM
COc1ccccc1C1c2c(C(C)C)n[nH]c2C(=O)N1c1ccc(-c2ccsc2)c(NC(C)=O)c1 (stereo not drawn) [II-237] | 853 nM
CC(C)(C)c1n[nH]c2c1C(c1ccccc1OCCO)N(c1ccc(-c3nccs3)cc1)C2=O (stereo not drawn) [II-014] | 17 nM
CN(C)C(=O)c1ccccc1C1C(C(=O)CC(C)(C)C)=C(O)C(=O)N1c1ccc(-c2ccsc2)cc1 (stereo not drawn) [Compound I-466] | 260 nM
COCCOc1ncccc1C1c2c(C(C)C)n[nH]c2C(=O)N1c1ccc(-c2noc(C)n2)cc1 (stereo not drawn) [II-280] | 244 nM
COc1ccccc1C1C(C(=O)CC(C)(C)C(=O)O)=C(O)C(=O)N1c1ccc(-c2ccsc2)cc1 (stereo not drawn) [Compound I-557] | 444 nM
CCCC(CCC)C1C(C(=O)c2ccc(CO)cc2)=C(O)C(=O)N1c1ccc(-c2ccon2)cc1 (stereo not drawn) [Compound I-006] | 27 nM
COc1ccccc1C1c2c(C(C)(C)CO)n[nH]c2C(=O)N1c1ccc(-c2ccsc2)cc1 (stereo not drawn) [II-217] | 3 nM

Compound | IC50
COc1ccccc1C1c2c(C(C)(C)C)n[nH]c2C(=O)N1c1ccc(-c2cccs2)nc1 (stereo not drawn) [II-255] | 3 nM
Cc1nc(-c2ccc(N3C(=O)C(O)=C(C(=O)CC4CCCC4)C3C3CCCCC3)cc2)no1 (stereo not drawn) [Compound I-438] | 490 nM
CC(C)(C)c1n[nH]c2c1C(c1cccnc1OCCO)N(c1ccc(-c3ccoc3)cc1)C2=O (stereo not drawn) [II-041] | 27 nM
COCCOc1ccccc1C1C(C(=O)CC(C)C)=C(O)C(=O)N1c1ccc(-c2csc(C)n2)cc1 (stereo not drawn) [Compound I-427] | 331 nM
COCCOc1cc(F)ccc1C1C(C(=O)CC(C)C)=C(O)C(=O)N1c1ccc(-c2noc(C)n2)cc1 (stereo not drawn) [Compound I-365] | 82 nM
CC(C)c1n[nH]c2c1C(c1cccnc1OCC(=O)O)N(c1ccc(-c3ccsc3)cc1)C2=O (stereo not drawn) [II-052] | 33 nM
CC(C)CC(=O)C1=C(O)C(=O)N(c2ccc(-c3ccsc3)cc2)C1c1ccccc1OCCCO (stereo not drawn) [Compound I-366] | 13 nM
COc1ccccc1C1c2c(C(C)C)n[nH]c2C(=O)N1c1ccc(-c2ccsc2)c(F)c1 (stereo not drawn) [II-238] | 19 nM
COc1ccc(-c2n[nH]c3c2C(c2ccccc2OC)N(CCc2ccco2)C3=O)cc1 (stereo not drawn) [II-225] | 979 nM
COc1cc(N2C(=O)C(O)=C(C(=O)C(C)C)C2c2ccccc2OC)ccc1-c1ccsc1 (stereo not drawn) [Compound I-221] | 81 nM
CC(C)c1n[nH]c2c1C(c1ccccc1C(=O)O)N(c1ccc(-c3ccsc3)cc1)C2=O (stereo not drawn) [II-089] | 107 nM
CNC(=O)C(C)(C)c1n[nH]c2c1C(c1ccccc1OC)N(c1ccc(-c3ccsc3)cc1)C2=O (stereo not drawn) [II-170] | 34 nM
CC(C)CC(=O)C1=C(O)C(=O)N(c2ccc(-c3ccon3)cc2)C1c1ccccc1OC(C)C (stereo not drawn) [Compound I-306] | 54 nM
COCc1ccccc1C1C(C(=O)C(C)C)=C(O)C(=O)N1c1ccc(-c2cccs2)cc1 (stereo not drawn) [Compound I-215] | 13 nM
COc1ccc(C(=O)C2=C(O)C(=O)N(c3ccc(-c4nc(C)no4)cc3)C2C2CCCCC2)cc1 (stereo not drawn) [Compound I-020] | 21 nM
Cc1cc(-c2ccc(N3C(=O)C(O)=C(C(=O)CC(C)C)C3c3ccccc3OC(F)(F)F)cc2)on1 (stereo not drawn) [Compound I-344] | 594 nM
COCc1ccccc1C1C(C(=O)CC(C)C)=C(O)C(=O)N1c1ccc(-c2ccc(C)s2)cc1 (stereo not drawn) [Compound I-303] | 31 nM
COCCOc1ccccc1C1C(C(=O)CC(C)C)=C(O)C(=O)N1c1ccc(-c2ccsc2)cc1 (stereo not drawn) [Compound I-251] | 17 nM
CC(C)C(=O)C1=C(O)C(=O)N(c2ccc(-c3ccsc3)cc2)C1c1ccccc1OCC(=O)O (stereo not drawn) [Compound I-185] | 111 nM
CC(C)CC(=O)C1=C(O)C(=O)N(c2ccc(-c3ccoc3)cc2)C1c1ccccc1OCCO (stereo not drawn) [Compound I-350] | 66 nM
Cc1nc(-c2ccc(N3C(=O)C(O)=C(C(=O)C(C)C)C3c3ccccc3OC(C)C)cc2)no1 (stereo not drawn) [Compound I-312] | 54 nM
COc1ccccc1C1c2c(C(C)(C)CO)n[nH]c2C(=O)N1c1ccc(-c2cc(C)no2)cc1 (stereo not drawn) [II-136] | 55 nM
CC(C)c1n[nH]c2c1C(c1ccccc1C(N)=O)N(c1ccc(-c3ccsc3)cc1)C2=O (stereo not drawn) [II-090] | 2 nM
CN(C)CCOc1ccccc1C1c2c(C(C)(C)C)n[nH]c2C(=O)N1c1ccc(-c2ccon2)cc1 (stereo not drawn) [II-030] | 128 nM
COCCOc1ncccc1C1c2c(C(C)(C)C)n[nH]c2C(=O)N1c1ccc(-c2ccon2)cc1 (stereo not drawn) [II-033] | 117 nM
CCc1ccccc1C1c2c(C(C)(C)C)n[nH]c2C(=O)N1c1ccc(-c2ccon2)cc1 (stereo not drawn) [II-106] | 226 nM
COCCOc1ccccc1C1C(C(=O)CC(C)C)=C(O)C(=O)N1c1ccc(SC(F)(F)F)cc1 (stereo not drawn) [Compound I-446] | 338 nM
